Publication PMC10196813 (Angewandte Chemie (International ed. in English), 2023)
Peptide text beside a SMILES is read from it. * marks the point of attachment. Cbz = O=C(OCc1ccccc1)*

Test system: PTP1B/TC-PTP
Type: cell-based
Conditions: HEK293 cells, followed by 4 h DU-14 at 100 nM

Cc1ncsc1-c1ccc([C@H](C)NC(=O)[C@@H]2C[C@@H](O)CN2C(=O)[C@@H](N)C(C)(C)C)cc1 [(S,R,S)-AHPC-Me]
effect of pre-treatment/addition on DU-14 mediated PTP1B and TC-PTP degradation: reduced

Nc1cccc2c1CN(C1CCC(=O)NC1=O)C2=O (stereo not shown) [Lenalidomide]
effect of pre-treatment/addition on DU-14 mediated PTP1B and TC-PTP degradation: had no effect

CC(C)C[C@@H](C=O)NC(=O)[C@H](CC(C)C)NC(=O)[C@H](CC(C)C)NC(=O)OCc1ccccc1 [MG-132] (Cbz-Leu-Leu-Leu-aldehyde)
effect of pre-treatment/addition on DU-14 mediated PTP1B and TC-PTP degradation: markedly reduced

NS(=O)(=O)OC[C@@H]1C[C@@H](n2ccc3c(N[C@H]4CCc5ccccc54)ncnc32)C[C@@H]1O [MLN-4924]
effect of pre-treatment/addition on DU-14 mediated PTP1B and TC-PTP degradation: markedly reduced
